# ChEMBL document CHEMBL5214923, “Contemporary mTOR inhibitor scaffolds to diseases breakdown: A patent review (2015-2021)” (Eur J Med Chem, 2022)
# pIC50, pKi: −log10 of the molar value.
# Assays:
# SF-268 = test: Antitumor activity against human SF-268 cells assessed as cell growth inhibition; assay type: functional, cell-based
# [1] = target: Peptidyl-prolyl cis-trans isomerase FKBP1A (Homo sapiens, UniProt P62942); test: Binding affinity to FKBP12 (unknown origin) assessed as inhibition constant
# [2] = Antitumor activity against human U-87 MG cells assessed as cell growth inhibition; assay type: functional, cell-based, U-87MG ATCC
# DU-145 = test: Antitumor activity against human DU-145 cells assessed as cell growth inhibition; assay type: functional, cell-based
# PC-3 = test: Antitumor activity against human PC-3 cells assessed as cell growth inhibition; assay type: functional, cell-based
# mTORC1 [3] = target: T1, mTORC1 (Homo sapiens, UniProt P42345+Q8N122+Q9BVC4); test: Inhibition of mTORC1 in human Jurkat cells assessed as inhibition of S6K phosphorylation incubated for 4 hrs by Western blot analysis; assay type: cell-based
# A549 = test: Antitumor activity against human A549 cells assessed as cell growth inhibition incubated for 72 hrs by Cell Titer-Glo assay; assay type: functional, cell-based; settings: A549, 72 h
# [4] = Solubility of the compound in water; assay type: physicochemical
# [5] = target: T2, Serine/threonine-protein kinase mTOR (Homo sapiens, UniProt P42345); test: Inhibition of human mTOR assessed as measuring phosphorylated p70S6K level by TR-FRET assay
# [6] = target: T3, Phosphatidylinositol 4,5-bisphosphate 3-kinase catalytic subunit gamma isoform (Homo sapiens, UniProt P48736); test: Inhibition of PI3Kgamma (unknown origin) by TR-FRET assay
# [7] = target: Phosphatidylinositol 4,5-bisphosphate 3-kinase catalytic subunit beta isoform (Homo sapiens, UniProt P42338); test: Inhibition of PI3Kbeta (unknown origin) by TR-FRET assay
# [8] = target: T2, Serine/threonine-protein kinase mTOR; test: Inhibition of mTOR (unknown origin) assessed as residual activity at 30 nM relative to control; values are per cent of control
# mTORC1 [9] = target: T1, mTORC1; test: Inhibition of mTORC1 in human PC-3 cells assessed as measuring phosphorylated S6K level incubated for 24 hrs by AlphaLISA assay; assay type: cell-based
# mTORC2 = mTORC2 (Homo sapiens, UniProt P42345+Q6R327+Q9BPZ7+Q9BVC4); test: Inhibition of mTORC2 in human PC-3 cells assessed as measuring phosphorylated Akt level incubated for 24 hrs by AlphaLISA assay; assay type: cell-based
# [10] = target: T3, Phosphatidylinositol 4,5-bisphosphate 3-kinase catalytic subunit gamma isoform; test: Inhibition of human PI3Kgamma preincubated for 15 mins followed by ATP addition measured after 1 hr by TR-FRET assay
# [11] = target: T4, Phosphatidylinositol 4,5-bisphosphate 3-kinase catalytic subunit delta isoform (Homo sapiens, UniProt O00329); test: Inhibition of human PI3Kdelta preincubated for 15 mins followed by ATP addition measured after 1 hr by TR-FRET assay
# T4 sequence (O00329 whole entry): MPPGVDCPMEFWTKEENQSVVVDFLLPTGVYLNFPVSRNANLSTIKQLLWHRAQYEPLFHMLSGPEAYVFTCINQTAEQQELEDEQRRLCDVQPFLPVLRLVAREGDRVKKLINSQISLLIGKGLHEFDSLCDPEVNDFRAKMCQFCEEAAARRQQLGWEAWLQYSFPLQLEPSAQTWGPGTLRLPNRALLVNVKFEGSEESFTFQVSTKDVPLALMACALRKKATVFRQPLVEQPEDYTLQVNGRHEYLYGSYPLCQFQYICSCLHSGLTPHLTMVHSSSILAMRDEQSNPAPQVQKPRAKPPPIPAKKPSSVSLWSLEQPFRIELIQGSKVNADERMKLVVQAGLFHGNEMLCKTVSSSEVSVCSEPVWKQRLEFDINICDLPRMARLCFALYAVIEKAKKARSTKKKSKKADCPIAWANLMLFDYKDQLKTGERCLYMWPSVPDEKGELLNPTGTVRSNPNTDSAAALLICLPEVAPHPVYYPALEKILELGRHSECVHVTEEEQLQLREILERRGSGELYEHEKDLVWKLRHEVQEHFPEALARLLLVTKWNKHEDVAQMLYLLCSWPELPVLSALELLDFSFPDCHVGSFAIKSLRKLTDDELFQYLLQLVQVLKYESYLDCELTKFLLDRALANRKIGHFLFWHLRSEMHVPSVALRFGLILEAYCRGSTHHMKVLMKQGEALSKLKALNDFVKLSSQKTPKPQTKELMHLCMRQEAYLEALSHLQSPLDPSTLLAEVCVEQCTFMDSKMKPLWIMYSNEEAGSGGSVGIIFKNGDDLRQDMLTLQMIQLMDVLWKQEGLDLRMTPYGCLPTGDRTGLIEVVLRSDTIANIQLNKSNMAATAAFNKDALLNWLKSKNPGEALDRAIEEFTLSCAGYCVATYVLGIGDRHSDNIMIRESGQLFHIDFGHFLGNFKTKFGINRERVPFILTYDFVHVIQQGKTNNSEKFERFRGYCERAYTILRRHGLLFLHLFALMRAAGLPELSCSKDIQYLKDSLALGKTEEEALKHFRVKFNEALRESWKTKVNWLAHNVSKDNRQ
# [12] = target: Phosphatidylinositol 4,5-bisphosphate 3-kinase catalytic subunit alpha isoform (Homo sapiens, UniProt P42336); test: Inhibition of human PI3Kalpha preincubated for 15 mins followed by ATP addition measured after 1 hr by TR-FRET assay
# mTORC1 [13] = target: T1, mTORC1; test: Inhibition of mTORC1 (unknown origin); assay type: protein-complex assay
# mTORC2 (Homo sapiens) = mTORC2 (Homo sapiens) (UniProt P42345+Q6R327+Q9BVC4+Q9BPZ7); test: Inhibition of mTORC2 (unknown origin) assessed as measuring phosphorylated AKT at 0.5 uM relative to control; assay type: protein-complex assay
# mTORC1 [14] = target: T1, mTORC1; test: Inhibition of mTORC1 (unknown origin) assessed as measuring phosphorylated p7OS6K level at 0.2 uM relative to control; assay type: protein-complex assay
# mTORC1 [15] = target: T1, mTORC1; test: Inhibition of mTORC1 (unknown origin) assessed as measuring phosphorylated 4EBP1 level at 1 uM relative to control; assay type: protein-complex assay
# T3 sequence (P48736 whole entry, canonical isoform): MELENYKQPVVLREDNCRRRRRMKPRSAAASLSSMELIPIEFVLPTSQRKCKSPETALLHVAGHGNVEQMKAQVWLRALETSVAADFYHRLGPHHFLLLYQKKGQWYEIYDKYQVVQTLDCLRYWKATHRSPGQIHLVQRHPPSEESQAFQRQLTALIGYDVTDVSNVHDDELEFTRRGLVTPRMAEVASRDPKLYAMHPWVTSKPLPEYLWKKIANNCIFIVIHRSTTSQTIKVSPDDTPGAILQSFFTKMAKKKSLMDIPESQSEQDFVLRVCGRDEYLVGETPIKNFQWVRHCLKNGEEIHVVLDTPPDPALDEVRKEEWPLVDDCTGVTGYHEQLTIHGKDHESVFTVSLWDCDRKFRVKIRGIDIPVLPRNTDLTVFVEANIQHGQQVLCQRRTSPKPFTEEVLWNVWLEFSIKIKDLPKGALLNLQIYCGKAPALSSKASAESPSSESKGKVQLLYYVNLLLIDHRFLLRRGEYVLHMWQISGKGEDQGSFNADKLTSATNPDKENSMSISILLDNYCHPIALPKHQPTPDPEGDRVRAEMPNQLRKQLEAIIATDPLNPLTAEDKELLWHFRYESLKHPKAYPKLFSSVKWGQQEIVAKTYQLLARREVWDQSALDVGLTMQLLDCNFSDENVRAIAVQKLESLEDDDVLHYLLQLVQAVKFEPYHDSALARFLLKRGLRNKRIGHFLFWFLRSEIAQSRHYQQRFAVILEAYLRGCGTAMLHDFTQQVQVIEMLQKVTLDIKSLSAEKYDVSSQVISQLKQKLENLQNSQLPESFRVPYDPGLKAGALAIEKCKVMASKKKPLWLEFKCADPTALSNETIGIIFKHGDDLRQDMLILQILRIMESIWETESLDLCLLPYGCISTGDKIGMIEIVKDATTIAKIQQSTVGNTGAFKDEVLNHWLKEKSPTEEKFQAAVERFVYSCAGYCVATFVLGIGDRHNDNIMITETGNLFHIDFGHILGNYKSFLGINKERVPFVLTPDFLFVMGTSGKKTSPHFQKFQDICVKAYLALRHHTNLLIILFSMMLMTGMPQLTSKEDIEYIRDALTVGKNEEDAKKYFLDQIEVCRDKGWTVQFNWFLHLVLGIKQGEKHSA
# Phosphatidylinositol 4,5-bisphosphate 3-kinase catalytic subunit alpha isoform, sequence (P42336 whole entry, canonical isoform): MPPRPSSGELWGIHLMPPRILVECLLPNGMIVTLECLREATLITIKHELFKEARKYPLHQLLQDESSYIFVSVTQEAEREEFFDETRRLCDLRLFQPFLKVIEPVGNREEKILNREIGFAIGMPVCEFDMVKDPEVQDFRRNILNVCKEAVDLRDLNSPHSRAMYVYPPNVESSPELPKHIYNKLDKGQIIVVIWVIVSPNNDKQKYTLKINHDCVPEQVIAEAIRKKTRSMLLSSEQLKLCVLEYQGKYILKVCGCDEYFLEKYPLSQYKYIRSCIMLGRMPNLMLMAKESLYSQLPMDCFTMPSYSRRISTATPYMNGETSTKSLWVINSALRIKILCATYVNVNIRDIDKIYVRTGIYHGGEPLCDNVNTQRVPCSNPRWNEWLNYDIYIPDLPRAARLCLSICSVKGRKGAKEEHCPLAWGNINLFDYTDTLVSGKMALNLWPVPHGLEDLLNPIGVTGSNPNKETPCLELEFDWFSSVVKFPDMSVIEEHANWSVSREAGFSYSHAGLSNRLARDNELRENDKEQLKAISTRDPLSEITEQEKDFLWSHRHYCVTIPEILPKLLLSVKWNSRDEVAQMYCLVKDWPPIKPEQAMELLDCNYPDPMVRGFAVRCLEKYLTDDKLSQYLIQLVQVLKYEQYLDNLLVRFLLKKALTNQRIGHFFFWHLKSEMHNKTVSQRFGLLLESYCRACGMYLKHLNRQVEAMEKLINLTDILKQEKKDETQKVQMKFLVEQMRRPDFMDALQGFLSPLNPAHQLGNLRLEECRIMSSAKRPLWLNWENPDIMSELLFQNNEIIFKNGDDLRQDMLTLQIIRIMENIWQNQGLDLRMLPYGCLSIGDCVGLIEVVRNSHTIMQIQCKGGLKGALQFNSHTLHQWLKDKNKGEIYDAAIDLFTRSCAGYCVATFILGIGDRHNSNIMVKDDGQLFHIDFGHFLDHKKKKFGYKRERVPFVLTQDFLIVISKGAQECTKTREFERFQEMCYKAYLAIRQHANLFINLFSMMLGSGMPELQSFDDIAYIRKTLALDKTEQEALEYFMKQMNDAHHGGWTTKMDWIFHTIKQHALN
# Phosphatidylinositol 4,5-bisphosphate 3-kinase catalytic subunit beta isoform, sequence (P42338 whole entry, canonical isoform): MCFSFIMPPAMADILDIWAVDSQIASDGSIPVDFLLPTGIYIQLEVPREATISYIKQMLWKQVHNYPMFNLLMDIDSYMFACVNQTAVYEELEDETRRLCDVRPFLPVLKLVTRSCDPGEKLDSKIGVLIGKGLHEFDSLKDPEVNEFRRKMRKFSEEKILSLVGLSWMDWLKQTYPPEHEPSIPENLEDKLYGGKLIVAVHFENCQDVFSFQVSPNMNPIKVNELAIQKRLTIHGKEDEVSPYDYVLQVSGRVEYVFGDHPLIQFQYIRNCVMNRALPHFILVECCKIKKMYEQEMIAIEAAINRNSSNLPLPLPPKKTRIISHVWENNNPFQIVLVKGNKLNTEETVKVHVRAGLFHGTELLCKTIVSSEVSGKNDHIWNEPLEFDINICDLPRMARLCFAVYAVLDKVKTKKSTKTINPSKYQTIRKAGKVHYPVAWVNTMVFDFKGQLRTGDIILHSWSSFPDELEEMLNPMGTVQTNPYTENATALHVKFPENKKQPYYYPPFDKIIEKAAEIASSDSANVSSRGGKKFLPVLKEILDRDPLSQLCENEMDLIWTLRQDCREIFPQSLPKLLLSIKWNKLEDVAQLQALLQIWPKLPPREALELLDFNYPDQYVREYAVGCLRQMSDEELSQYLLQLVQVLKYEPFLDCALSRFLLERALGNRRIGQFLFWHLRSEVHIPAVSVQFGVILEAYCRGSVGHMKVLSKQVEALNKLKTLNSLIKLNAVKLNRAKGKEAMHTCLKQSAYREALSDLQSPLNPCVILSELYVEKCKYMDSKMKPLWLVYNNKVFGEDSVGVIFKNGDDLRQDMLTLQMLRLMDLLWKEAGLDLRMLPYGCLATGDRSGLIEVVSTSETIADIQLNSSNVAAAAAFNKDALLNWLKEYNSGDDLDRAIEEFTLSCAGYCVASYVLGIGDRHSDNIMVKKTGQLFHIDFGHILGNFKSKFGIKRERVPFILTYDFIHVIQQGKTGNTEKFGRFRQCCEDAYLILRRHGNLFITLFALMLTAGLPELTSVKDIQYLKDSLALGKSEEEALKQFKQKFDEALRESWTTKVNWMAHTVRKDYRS
# Peptidyl-prolyl cis-trans isomerase FKBP1A, sequence (P62942 whole entry): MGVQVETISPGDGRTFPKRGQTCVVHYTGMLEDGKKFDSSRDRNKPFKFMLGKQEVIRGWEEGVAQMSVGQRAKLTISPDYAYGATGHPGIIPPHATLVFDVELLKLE
structure (smiles),measurement,setting,value
CO[C@@H]1C[C@@H]2CC[C@@H](C)[C@@](O)(O2)C(=O)C(=O)N2CCCC[C@H]2C(=O)OC([C@H](C)C[C@@H]2C[C@@H]3C[C@H]2C[C@H]3O)CC(=O)[C@H](C)/C=C(\C)[C@@H](O)[C@@H](OC)C(=O)[C@H](C)C[C@H](C)/C=C/C=C/C=C/1C (stereo partly specified),pIC50,SF-268,9.72
same,pKi,[1],8.41
same,pIC50,[2],8.66
same,pIC50,DU-145,8.57
same,pIC50,PC-3,8.60
same,pIC50,mTORC1 [3],10.00
CO[C@@H]1C[C@@H]2CC[C@@H](C)[C@@](O)(O2)C(=O)C(=O)N2CCCC[C@H]2C(=O)O[C@H]([C@H](C)C[C@@H]2CC[C@@H](OC(=O)C[n+]3csc(C)c3C)[C@H](OC)C2)CC(=O)[C@H](C)/C=C(\C)[C@@H](OC(=O)C[n+]2csc(C)c2C)[C@@H](OC)C(=O)[C@H](C)C[C@H](C)/C=C/C=C/C=C/1C.[Br-].[Br-],pIC50,A549,5.21
same,solubility,[4],100 mg/mL
COc1ccc(-c2ccc3c(N4CCOC[C@@H]4C)cc(N4CCOC[C@@H]4C)nc3n2)cc1,pIC50,[5],> 7.00
C[C@H]1COCCN1c1cc(N2CCOC[C@@H]2C)c2ccc(-c3ccc(CNCCO)cc3)nc2n1,pIC50,[5],> 7.00
CO[C@@H]1C[C@@H]2CC[C@@H](C)[C@@](O)(O2)C(=O)C(=O)N2CCCC[C@H]2C(=O)O[C@H]([C@H](C)C[C@@H]2CC[C@@H](OC(=O)C[n+]3csc(C)c3C)[C@H](OC)C2)CC(=O)[C@H](C)/C=C(\C)[C@@H](O)[C@@H](OC)C(=O)[C@H](C)C[C@H](C)/C=C/C=C/C=C/1C.[Br-],pIC50,A549,5.13
same,solubility,[4],4.2 mg/mL
C[C@H]1COCCN1c1cc2nc(-c3cccc(CO)c3)ccc2c(N2CCOC[C@@H]2C)n1,pIC50,[5],> 7.00
O=S(=O)(Nc1cc(-c2ccc3ncc(N4CCNCC4)nc3c2)cnc1Cl)c1ccc(F)cc1,pIC50,[6],8.29
same,pIC50,[7],8.32
CC(C)(C#N)c1ccc(-n2c3c4cc(-c5ccc(NC(=O)CNC6CCCCC6)nc5)ccc4ncc3n3cnnc23)cc1,residual activity,[8],< 5%
CO[C@@H]1C[C@H](C[C@@H](C)[C@@H]2CC(=O)[C@H](C)/C=C(\C)[C@@H](O)[C@@H](OC)C(=O)[C@H](C)C[C@H](C)/C=C/C=C/C=C(\C)C(OCCO)C[C@@H]3CC[C@@H](C)[C@@](O)(O3)C(=O)C(=O)N3CCCC[C@H]3C(=O)O2)CC[C@H]1OCCCN1CCOC[C@H]1C (stereo partly specified),pIC50,mTORC1 [9],> 9.50
same,pIC50,mTORC2,< 5.00
Nc1ncnc2c1c(-c1cc3cc(O)cc(Cl)c3[nH]1)nn2C1CCOCC1,pIC50,[10],7.60
same,pIC50,[11],8.00
same,pIC50,[12],7.00
same,pIC50,mTORC1 [13],> 8.30
CC(=O)N1CCC(n2nc(-c3cc4cc(O)cc(Cl)c4[nH]3)c3c(N)ncnc32)CC1,pIC50,[10],7.30
same,pIC50,[11],8.00
same,pIC50,[12],7.00
same,pIC50,mTORC1 [13],> 8.30
CNC(=O)c1cccc(-c2ccc3c(N4CCOC[C@@H]4C)nc(N4CCOC[C@@H]4C)nc3n2)c1,inhibition,mTORC2 (Homo sapiens),73.9%
same,inhibition,mTORC1 [14],87.7%
same,inhibition,mTORC1 [15],83.8%
CO[C@H]1C[C@@H]2CC[C@@H](C)[C@@](O)(O2)C(=O)C(=O)N2CCCC[C@H]2C(=O)O[C@H]([C@H](C)C[C@@H]2CC[C@@H](O)[C@H](OC)C2)CC(=O)[C@H](C)/C=C(\C)[C@@H](O)[C@@H](OC)C(=O)[C@H](C)C[C@H](C)/C=C/C=C/C=C/1C [SIROLIMUS],pIC50,A549,4.31
same,pIC50,SF-268,5.57
same,pIC50,[2],5.00
same,pIC50,DU-145,5.40
same,pIC50,PC-3,5.89
CO[C@@H]1C[C@H](C[C@@H](C)[C@@H]2CC(=O)[C@H](C)/C=C(\C)[C@@H](O)[C@@H](OC)C(=O)[C@H](C)C[C@H](C)/C=C/C=C/C=C(\C)C(OCCO)C[C@@H]3CC[C@@H](C)[C@@](O)(O3)C(=O)C(=O)N3CCCC[C@H]3C(=O)O2)CC[C@H]1OCCCN1C[C@@H](C)O[C@@H](C)C1 (stereo partly specified),pIC50,mTORC1 [9],> 9.50
same,pIC50,mTORC2,< 5.00
